According to publication PMC7794939, “Discovery of Monoacylglycerol Lipase (MAGL) Inhibitors Based on a Pharmacophore-Guided Virtual Screening Study” (Molecules, 2020):

Columns and labels:
Assay type in all cases: biochemical
Human recombinant MAGL [1] = target: T1, Human recombinant MAGL (Homo sapiens, UniProt Q99685); experiment: MAGL enzyme inhibition assay (4-NPA substrate, absorbance 405 nm); conditions: 30 min, rt, pH 7.2
T1 construct: purchased Cayman Chemical (Ann Arbor, MI, USA)
T1 sequence (Q99685 1-303): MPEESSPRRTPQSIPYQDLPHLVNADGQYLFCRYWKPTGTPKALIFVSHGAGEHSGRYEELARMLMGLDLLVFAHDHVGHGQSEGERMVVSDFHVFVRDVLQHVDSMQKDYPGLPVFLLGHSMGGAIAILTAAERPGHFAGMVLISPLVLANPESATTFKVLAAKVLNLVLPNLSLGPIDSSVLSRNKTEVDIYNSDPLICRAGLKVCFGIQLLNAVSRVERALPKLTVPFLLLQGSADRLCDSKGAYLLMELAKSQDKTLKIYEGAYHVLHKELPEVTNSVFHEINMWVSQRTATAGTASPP
Experimental: Human recombinant MAGL and 4-nitrophenyl acetate substrate (4-NPA) were bought from Cayman Chemical (Ann Arbor, MI, USA). […] The IC50 values were produced in 96-well microtiter plates. The MAGL reaction was carried out at rt at a final volume of 200 µL in 10 mM Tris buffer, pH 7.2, containing 1 mM EDTA and 0.1 mg/mL BSA. […] The reaction was started by adding 40 µL of MAGL (11 ng/well) in such a way that the assay was linear over 30 min. […] Two more reactions were carried out: one reaction containing no compounds and the second one containing neither enzyme nor inhibitor.

Human recombinant MAGL [2] = target: T1, Human recombinant MAGL; experiment: MAGL inhibition with or without the thiol-containing agent DTT
Experimental: (§1) Furthermore, with the aim of establishing whether the mechanism of inhibition was reversible or irreversible, the effects of preincubation on the inhibitory activity of compounds VS1 and VS2 were evaluated. In this assay, the compounds were preincubated with the enzyme for 0, 30 and 60 min before adding the substrate to start the enzymatic reaction. An irreversible inhibitor should show a higher potency after longer incubation times, whereas a reversible inhibitor should display a constant inhibition potency that is independent from the incubation time. […] Taken together, these experimental studies, aimed at better characterizing the mode of action of compounds VS1 and VS2, further supported the reliability of the binding mode predicted for the two ligands.
Human recombinant MAGL and 4-nitrophenyl acetate substrate (4-NPA) were bought from Cayman Chemical (Ann Arbor, MI, USA). The reversible compound 17b reported by Granchi et al. in 2016 was synthesized in our laboratory and used as reference compound [19]. Compound 3l was synthesized in our laboratory according to the procedure reported by Aida et al. and used as reference compound. The IC50 values were produced in 96-well microtiter plates. The MAGL reaction was carried out at rt at a final volume of 200 µL in 10 mM Tris buffer, pH 7.2, containing 1 mM EDTA and 0.1 mg/mL BSA. A total of 150 µL of 4-NPA 133.3 µM was added to 10 µL of DMSO containing the appropriate amount of compound. The reaction was started by adding 40 µL of MAGL (11 ng/well) in such a way that the assay was linear over 30 min. After the reaction had progressed for 30 min, absorbance values were measured by using a VictorX3 instrument (PerkinElmer, Waltham, MA, USA) at 405 nm. Two more reactions were carried out: one reaction containing no compounds and the second one containing neither enzyme nor inhibitor. To remove possible false positive results, a blank analysis was performed for each compound concentration and the final absorbance results were obtained detracting the absorbance produced by the presence of all the components except MAGL in the same conditions.

Human recombinant MAGL [3] = target: T1, Human recombinant MAGL; experiment: MAGL inhibition after preincubation of compound with enzyme (reversibility); conditions: preincubated with the enzyme for 0, 30 and 60 min before adding the substrate
Experimental: as §1
Human recombinant MAGL and 4-nitrophenyl acetate substrate (4-NPA) were bought from Cayman Chemical (Ann Arbor, MI, USA). […] After the reaction had progressed for 30 min, absorbance values were measured by using a VictorX3 instrument (PerkinElmer, Waltham, MA, USA) at 405 nm. […] To remove possible false positive results, a blank analysis was performed for each compound concentration and the final absorbance results were obtained detracting the absorbance produced by the presence of all the components except MAGL in the same conditions.

[4] = assayed in the absence of DTT, read-out: IC50 in the absence of DTT
[5] = assayed in the presence of 10 µM DTT, read-out: IC50 in the presence of DTT

## O=C(Nc1nnc(C2CC(=O)N(c3ccccc3)C2)s1)c1cccc(Br)c1 (stereo not shown) [VS6]
Human recombinant MAGL [1]
  IC50: > 200 µM

## CC(C)c1ccc(OCC(=O)Nc2ccc(-c3nc4ccccc4c(=O)o3)cc2)cc1 [VS3]
Human recombinant MAGL [1]
  IC50: 79.4 ± 6.3 µM

## O=C(c1ccc(Cl)cc1)C1CCN(C(=O)c2cccc(O)c2)CC1 [Compound 17b, reference compound]
Human recombinant MAGL [1]
  IC50: 0.9 ± 0.08 µM

## O=C1c2ccc(-c3nc4ccccc4c(=O)o3)cc2C(=O)N1Cc1ccc(Cl)cc1 [VS5]
Human recombinant MAGL [1]
  IC50: > 200 µM

## O=C(c1ccco1)N1CCN(C2=CC(=O)N(c3cccc(Cl)c3)C2=O)CC1 [VS2]
Human recombinant MAGL [1]
  IC50: 48.9 ± 4.2 µM
Human recombinant MAGL [2]; [4]
  IC50: 47.5 µM
Human recombinant MAGL [2]; [5]
  IC50: 49.5 µM
Human recombinant MAGL [3]
  Effect of preincubation time on inhibitory potency (reversible or irreversible mechanism): did not show any significant increase in inhibitory potency at longer incubation times

## Cc1cc(=O)[nH]c(-c2ccc(NS(=O)(=O)c3ccc(F)cc3Cl)cc2)n1 [VS1]
Human recombinant MAGL [1]
  IC50: 34.7 ± 2.4 µM
Human recombinant MAGL [2]; [4]
  IC50: 35.4 µM
Human recombinant MAGL [2]; [5]
  IC50: 34.1 µM
Human recombinant MAGL [3]
  Effect of preincubation time on inhibitory potency (reversible or irreversible mechanism): did not show any significant increase in inhibitory potency at longer incubation times

## O=C(c1ccco1)N1CCN(C2CC(=O)N(c3cccc(Cl)c3)C2=O)CC1 (stereo not shown) [VS4]
Human recombinant MAGL [1]
  IC50: 138 ± 11 µM
